Where two headings read alike, the source gives them in different places.
Legend:
Type in all cases: cell-based
[1] = system: BT474 cells (HER2 positive breast cancer cells); test: Cell viability assay (CCK8), BT474 cells; conditions: Homo sapiens, BT-474, Table 10, BT474, 72 hours, read-out: IC50 (half inhibitory concentration)
Outline: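 HER2-overexpressing BT474 cells in RPMI1640 were exposed to compounds for 72 hours over 10 concentrations (3-fold dilution, top 10 μM). Viability was measured with CCK8 reagent against a DMSO control, and IC50 was taken from growth inhibition curves.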

[2] = system: H1975 (EGFR T790M+L858R mutation, non-small cell lung cancer cell line); test: Cell viability assay (WST/CCK8), H1975 cells; conditions: Homo sapiens, read-out: IC50 (half inhibitory concentration)
Source text: (§1) The cell lines with abnormal EGFR expression used are as follows: • HCC827 cells (EGFR Exon19 del, non-small cell lung cancer cells); • PC9 cells (EGFR Exon 19 del, non-small cell lung cancer cells); • PC9BracA1 (EGFR Exon 19 del+T790M, non-small cell lung cancer cells) • H1975 (EGFR Exon T790M+L858R mutation, non-small cell lung cancer cell line) • BT474 cells (HER2 positive breast cancer cells)
(§2) All of the half inhibitory concentrations (IC50) of these compounds of the present invention were determined with WST reagent from Fuyuan Biotec Company. The specific experiment procedures are as follows: Cancer cells were planted in 96-well-plate at the density of 3 000 cells per well with 100 μL RPMI1640 completed culture medium. In the next day, compounds with indicated concentrations were added to the cells, DMSO was used as the negative control and the EGFR TKIs were used to treat cells as the positive groups. After 72 hours drug treatment, cell viability was measured by using the WST reagent following the instructions.

[3] = system: PC9BracA1 (EGFR Exon 19 del+T790M, non-small cell lung cancer cells); test: Cell viability assay (WST/CCK8), PC9Brac1 cells; conditions: read-out: IC50 (half inhibitory concentration)
Source text: as §1, §2

[4] = system: HCC827 cells (EGFR Exon19 del, non-small cell lung cancer cells); test: Cell viability assay (WST/CCK8), HCC827 cells; conditions: Homo sapiens, HCC827, 72 h, read-out: IC50 (half inhibitory concentration)
Outline: (§3)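 Plated 3 000 cells/well in complete RPMI1640 the day before dosing; controls were DMSO (negative) and EGFR TKIs (positive).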

[5] = system: PC9 cells (EGFR Exon 19 del, non-small cell lung cancer cells); test: Cell viability assay (WST/CCK8), PC9 cells; conditions: Homo sapiens, read-out: IC50 (half inhibitory concentration)
Outline: as §3

[6] = NCI-H1975, Table 7, canertinib-based compounds, H1975 (L858R + T790M)
[7] = Table 7, canertinib-based compounds, PC9Brca1 (Ex19del + T790M)
[8] = Table 6, canertinib-based compounds, HCC827 (Exon19 Del), 72 hours, WST
[9] = PC-9, Table 6, canertinib-based compounds, PC9 (Exon19 Del), 72 hours, WST
[10] = HCC827 (Exon19 Del), 72 hours, WST (CCK8)
[11] = NCI-H1975, H1975 (L858R + T790M), 72 hours, WST
[12] = PC9Brac1 (Ex19del + T790M), 72 hours, WST
[13] = PC-9, PC9 (Exon19 Del), 72 hours, WST (CCK8)
[14] = Table 8, osimertinib-based compounds, HCC827, 72 hours, WST
[15] = NCI-H1975, Table 8, osimertinib-based compounds, H1975, 72 hours, WST
[16] = Table 8, osimertinib-based compounds, Pc9Brc1, 72 hours, WST
[17] = PC-9, Table 8, osimertinib-based compounds, PC9, 72 hours, WST

| SMILES | IC50 [1] [nM] | IC50 [2, 6] [nM] | IC50 [3, 7] [nM] | IC50 [4, 8] [nM] | IC50 [5, 9] [nM] | IC50 [4, 14] [nM] | IC50 [2, 15] [nM] | IC50 [3, 16] [nM] | IC50 [5, 17] [nM] | also measured |
| --- | --- | --- | --- | --- | --- | --- | --- | --- | --- | --- |
| C=CC(=O)Nc1cc2c(Nc3ccc(F)c(Cl)c3)ncnc2cc1OCCCN1CCC(N2CCN(CCCCCCNc3cccc4c3C(=O)N(C3CCC(=O)NC3=O)C4=O)CC2)CC1 (stereo not shown) [SIAIS262183, N-(4-((3-chloro-4-fluorophenyl)amino)-7-(3-(4-(4-(6-((2-(2,6-dioxopiperidin-3-yl)-1,3-dioxoisoindolin-4-yl)amino)hexyl)piperazin-1-yl)piperidin-1-yl)propoxy)quinazolin-6-yl)acrylamide] | 11.9 | 250 | 1060 |  |  |  |  |  |  |  |
| C=CC(=O)Nc1cc2c(Nc3ccc(F)c(Cl)c3)ncnc2cc1OCCCN1CCC(N2CCN(C(=O)CCCCCNc3cccc4c3C(=O)N(C3CCC(=O)NC3=O)C4=O)CC2)CC1 (stereo not shown) [SIAIS262178, N-(4-((3-chloro-4-fluorophenyl)amino)-7-(3-(4-(4-(6-((2-(2,6-dioxopiperidin-3-yl)-1,3-dioxoisoindolin-4-yl)amino)hexanoyl)piperazin-1-yl)piperidin-1-yl)propoxy)quinazolin-6-yl)acrylamide] | 2.1 | 38 | 69 | 5.2 | 0.4 |  |  |  |  |  |
| COc1cc2ncnc(Nc3ccc(F)c(Cl)c3)c2cc1NC(=O)/C=C/CN1CCC(NC(=O)CCCCCCCCCCSc2cccc3c2CN(C2CCC(=O)NC2=O)C3=O)CC1 (stereo not shown) [SIAIS262118, (E)-N-(1-(4-((4-((3-chloro-4-fluorophenyl)amino)-7-methoxyquinazolin-6-yl)amino)-4-oxobut-2-en-1-yl)piperidin-4-yl)-11-((2-(2,6-dioxopiperidin-3-yl)-1-oxoisoindolin-4-yl)thio)undecanamide] | 63.2 |  |  |  |  |  |  |  |  | IC50 [4, 10]: 3 nM; IC50 [2, 11]: 299 nM; IC50 [3, 12]: 205 nM; IC50 [5, 13]: 3.8 nM |
| C=CC(=O)Nc1cc2c(Nc3ccc(F)c(Cl)c3)ncnc2cc1OCCCN1CCC(N2CCN(C(=O)CSc3cccc4c3CN(C3CCC(=O)NC3=O)C4=O)CC2)CC1 (stereo not shown) [SIAIS262174, N-(4-((3-chloro-4-fluorophenyl)amino)-7-(3-(4-(4-(2-((2-(2,6-dioxopiperidin-3-yl)-1-oxoisoindolin-4-yl)thio)acetyl)piperazin-1-yl)piperidin-1-yl)propoxy)quinazolin-6-yl)acrylamide] | 28.2 | 287 | 267 | 11 | 16.7 |  |  |  |  |  |
| C=CC(=O)Nc1cc2c(Nc3ccc(F)c(Cl)c3)ncnc2cc1OCCCN1CCN(C(=O)CCCCCCNc2cccc3c2C(=O)N(C2CCC(=O)NC2=O)C3=O)CC1 (stereo not shown) [SIAIS262126, N-(4-((3-chloro-4-fluorophenyl)amino)-7-(3-(4-(7-((2-(2,6-dioxopiperidin-3-yl)-1,3-dioxoisoindolin-4-yl)amino)heptanoyl)piperazin-1-yl)propoxy)quinazolin-6-yl)acrylamide] | 17.6 | 20 | 85 | 2.5 | 2.3 |  |  |  |  |  |
| C=CC(=O)Nc1cc2c(Nc3ccc(F)c(Cl)c3)ncnc2cc1OCCCN1CCN(C(=O)CNc2cccc3c2C(=O)N(C2CCC(=O)NC2=O)C3=O)CC1 (stereo not shown) [SIAIS262124, N-(4-((3-chloro-4-fluorophenyl)amino)-7-(3-(4-(2-((2-(2,6-dioxopiperidin-3-yl)-1,3-dioxoisoindolin-4-yl)amino)acetyl)piperazin-1-yl)propoxy)quinazolin-6-yl)acrylamide] | 16.4 | 413 | 419 | 10.3 | 2.6 |  |  |  |  |  |
| COc1cc2ncnc(Nc3ccc(F)c(Cl)c3)c2cc1NC(=O)/C=C/CN1CCC(N2CCN(C(=O)CNc3cccc4c3C(=O)N(C3CCC(=O)NC3=O)C4=O)CC2)CC1 (stereo not shown) [SIAIS262036, (E)-N-(4-((3-chloro-4-fluorophenyl)amino)-7-methoxyquinazolin-6-yl)-4-(4-(4-(2-((2-(2,6-dioxopiperidin-3-yl)-1,3-dioxoisoindolin-4-yl)amino)acetyl)piperazin-1-yl)piperidin-1-yl)but-2-enamide] | 0.3 |  |  |  |  |  |  |  |  | IC50 [4, 10]: 2.4 nM; IC50 [2, 11]: 511 nM; IC50 [3, 12]: 260 nM; IC50 [5, 13]: 6.7 nM |
| COc1cc2ncnc(Nc3ccc(F)c(Cl)c3)c2cc1NC(=O)/C=C/CN1CCC(NC(=O)CCCCCCNc2cccc3c2C(=O)N(C2CCC(=O)NC2=O)C3=O)CC1 (stereo not shown) [SIAIS249085, (E)-N-(1-(4-((4-((3-chloro-4-fluorophenyl)amino)-7-methoxyquinazolin-6-yl)amino)-4-oxobut-2-en-1-yl)piperidin-4-yl)-7-((2-(2,6-dioxopiperidin-3-yl)-1,3-dioxoisoindolin-4-yl)amino)heptanamide] | 39.3 |  |  |  |  |  |  |  |  | IC50 [4, 10]: 3 nM; IC50 [2, 11]: 952 nM; IC50 [3, 12]: 481 nM; IC50 [5, 13]: 7.9 nM |
| C=CC(=O)Nc1cc(Nc2nccc(-c3cn(C)c4ccccc34)n2)c(OC)cc1N(C)CCN(C)C [Osimertinib, reference compound] |  |  |  |  |  |  |  |  |  | IC50 [4]: 0.36 nM; IC50 ([2]; NCI-H1975, 72 h): 2 nM; IC50 ([3]; 72 h): 354 nM; IC50 ([5]; PC-9, 72 h): 4 nM |
| C=CC(=O)Nc1cc(Nc2nccc(-c3cn(C)c4ccccc34)n2)c(OC)cc1N(C)CCN(C)CCCCCCSc1cccc2c1CN(C1CCC(=O)NC1=O)C2=O (stereo not shown) [SIAIS337082, N-(2-((2-((6-((2-(2,6-dioxopiperidin-3-yl)-1-oxoisoindolin-4-yl)thio)hexyl)(methyl)amino)ethyl)(methyl)amino)-4-methoxy-5-((4-(1-methyl-1H-indol-3-yl)pyrimidin-2-yl)amino)phenyl)acrylamide] |  |  |  |  |  | 8 | 55 | 218 | 89 |  |
| C=CC(=O)Nc1cc(Nc2nccc(-c3cn(C)c4ccccc34)n2)c(OC)cc1N(C)CCN(C)CCCCCCCCCCCSc1cccc2c1CN(C1CCC(=O)NC1=O)C2=O (stereo not shown) [SIAIS337087, N-(2-((2-((11-((2-(2,6-dioxopiperidin-3-yl)-1-oxoisoindolin-4-yl)thio)undecyl)(methyl)amino)ethyl)(methyl)amino)-4-methoxy-5-((4-(1-methyl-1H-indol-3-yl)pyrimidin-2-yl)amino)phenyl)acrylamide] |  |  |  |  |  | 91 | 242 | 598 | 320 |  |
| C=CC(=O)Nc1cc(Nc2nccc(-c3cn(C)c4ccccc34)n2)c(OC)cc1N(C)CCN(C)CCCCCCCSc1cccc2c1CN(C1CCC(=O)NC1=O)C2=O (stereo not shown) [SIAIS337083, N-(2-((2-((7-((2-(2,6-dioxopiperidin-3-yl)-1-oxoisoindolin-4-yl)thio)heptyl)(methyl)amino)ethyl)(methyl)amino)-4-methoxy-5-((4-(1-methyl-1H-indol-3-yl)pyrimidin-2-yl)amino)phenyl)acrylamide] |  |  |  |  |  | 46 | 494 | 676 | 512 |  |
| C=CC(=O)Nc1cc(Nc2nccc(-c3cn(C)c4ccccc34)n2)c(OC)cc1N(C)CCN(C)CCCCCCCCCCSc1cccc2c1CN(C1CCC(=O)NC1=O)C2=O (stereo not shown) [SIAIS337086, N-(2-((2-((10-((2-(2,6-dioxopiperidin-3-yl)-1-oxoisoindolin-4-yl)thio)decyl)(methyl)amino)ethyl)(methyl)amino)-4-methoxy-5-((4-(1-methyl-1H-indol-3-yl)pyrimidin-2-yl)amino)phenyl)acrylamide] |  |  |  |  |  | 3 | 203 | 194 | 64 |  |

From patent publication US12564638B2 (SHANGHAITECH UNIVERSITY, priority 2019, dated 2026)
